Broadly, the IC50 is the point on the concentration scale where inhibition reaches its midpoint. Low readings indicate greater potency, high ones weaker potency.

In this test the target is SHP2 (Homo sapiens (Human), UniProt Q06124). Briefly: SHP2 Allosteric Inhibition Assay (DiFMUP prompt fluorescence). Format: biochemical. Particulars: 0.25 nM SHP2 activated with 0.5 μM peptide IRS1_pY1172(dPEG8)pY1222; substrate DiFMUP 100 μM. The source says: SHP2 Allosteric Inhibition Assay.
SHP2, sequence (Q06124 whole entry): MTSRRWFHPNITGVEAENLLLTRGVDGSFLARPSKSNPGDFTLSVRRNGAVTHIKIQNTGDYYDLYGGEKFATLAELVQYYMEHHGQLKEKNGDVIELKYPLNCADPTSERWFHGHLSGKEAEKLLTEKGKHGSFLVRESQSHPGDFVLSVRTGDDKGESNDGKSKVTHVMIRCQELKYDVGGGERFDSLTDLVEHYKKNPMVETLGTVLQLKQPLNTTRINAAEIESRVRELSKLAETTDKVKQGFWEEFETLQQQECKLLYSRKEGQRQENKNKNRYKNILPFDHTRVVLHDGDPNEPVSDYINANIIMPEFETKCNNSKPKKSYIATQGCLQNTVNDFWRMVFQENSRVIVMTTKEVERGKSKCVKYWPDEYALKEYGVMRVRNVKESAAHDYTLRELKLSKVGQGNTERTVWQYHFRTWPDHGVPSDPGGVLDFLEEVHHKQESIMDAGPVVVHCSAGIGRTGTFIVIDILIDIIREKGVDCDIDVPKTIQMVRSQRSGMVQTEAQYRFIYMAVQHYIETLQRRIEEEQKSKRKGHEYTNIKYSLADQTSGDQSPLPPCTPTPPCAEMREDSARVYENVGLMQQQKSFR
SHP2 is allosterically activated through binding of bis-tyrosyl-phorphorylated peptides to its Src Homology 2 (SH2) domains. The latter activation step leads to the release of the auto-inhibitory interface of SHP2, which in turn renders the SHP2 protein tyrosine phosphatase (PTP) active and available for substrate recognition and reaction catalysis. The catalytic activity of SHP2 was monitored using the surrogate substrate DiFMUP in a prompt fluorescence assay format.
More specifically, the phosphatase reactions were performed at room temperature in 96-well black polystyrene plate, flat bottom, low flange, non-binding surface (Corning, Cat #3575) using a final reaction volume of 50 μl and the following assay buffer conditions: 60 mM HEPES, pH 7.2, 75 mM NaCl, 75 mM KCl, 1 mM EDTA 0.005% Brij-35, 5 mM DTT.
The inhibition of SHP2 by compounds of the disclosure (concentrations varying from 0.003-100 μM) was monitored using an assay in which 0.25 nM of SHP2 was incubated with of 0.5 μM of peptide IRSl_pY1172(dPEG8)pY1222 (sequence: H2N-LN(pY)IDLDLV(dPEG8)LST(pY)ASINFQK-amide). After 30-60 minutes incubation at 25° C. the surrogate substrate DiFMUP (Invitrogen, cat #D6567, 100 μM final) was added to the reaction and the conversion of DiFMUP to 6,8-difluoro-7-hydroxyl-4-methylcoumarin (DiFMU) was monitored continuously for 10 minutes with excitation at 355 nm and emission at 460 nm using a microplate reader (PolarStar, BMG). The inhibitor dose response curves were analyzed using normalized IC50 regression curve fitting with control based normalization.
Biochemical assay results for compounds of the disclosure are shown in examples and Table 1. In Table 1, A means an IC50 of less than 1 μM: B means an IC50 equal to 1 μM but less than 10 μM; and C means an IC50 of 10 μM or more.
As to `CN(c1cnc2c(-c3cccc(Cl)c3F)n[nH]c2n1)[C@@H]1CCC[C@@H]1N` [Example 4], the IC50 was less than 1 µM.
`CN(c1cnc2c(-c3cccc(Cl)c3F)n[nH]c2n1)[C@@H]1CCCC[C@H]1N` (single isomer, unassigned) [Example 24] displayed an IC50 of less than 1 µM.
As to `CN(C[C@H]1CC[C@H](N)C1)c1cnc2c(-c3cccc(Cl)c3F)n[nH]c2n1` [Example 25], the IC50 is less than 1 µM.
On to `N[C@@H]1CCCC[C@H]1Nc1cnc2c(-c3cccc(Cl)c3F)n[nH]c2n1` (mixture of isomers) [Example 5], for which the IC50 lay within 1 to 10 µM.
The figure for `CN(c1cnc2c(N3CCCc4ncccc43)n[nH]c2n1)[C@@H]1COCC[C@@H]1N` [Example 35] is no less than 10 µM; for `CN(c1cnc2c(N3CCCc4ncccc43)n[nH]c2n1)[C@@H]1COC[C@@H]1N` (single isomer, unassigned) [Example 10] it is no less than 10 µM; for `N[C@@H]1CCCC[C@@H]1Nc1cnc2c(-c3cccc(Cl)c3F)n[nH]c2n1` (single isomer, unassigned) [Example 7] it is 1 to 10 µM.
As to `CN(c1cnc2c(-c3cccc(Cl)c3F)n[nH]c2n1)[C@@H]1CCCC[C@@H]1CN` [Example 41], the concentration for half-maximal inhibition (IC50) is less than 1 µM.
The figure for `NC[C@H]1CCCC[C@H]1Nc1cnc2c(-c3cccc(Cl)c3F)n[nH]c2n1` (mixture of isomers) [Example 13] is less than 1 µM; for `CN(c1cnc2c(-c3cccc(Cl)c3F)n[nH]c2n1)[C@@H]1CCCC[C@@H]1N` [Example 21] it is less than 1 µM; for `CN(c1cnc2c(N3CCc4c(C(N)=O)cccc43)n[nH]c2n1)[C@@H]1CCCC[C@@H]1N` [Example 46] it is less than 1 µM.
The figure for `N[C@H]1CCCC[C@@H]1Nc1cnc2c(-c3cccc(Cl)c3F)n[nH]c2n1` [Example 6] is 1 to 10 µM; for `CN(c1cnc2c(-c3cccc(Cl)c3F)n[nH]c2n1)[C@@H]1CCC[C@@H]1CN` (single isomer, unassigned) [Example 26] it is less than 1 µM; for `CN(c1cnc2c(N3CCCc4ncccc43)n[nH]c2n1)[C@H]1CCOC[C@H]1N` [Example 37] it is no less than 10 µM.
Next, `CN(c1cnc2c(-c3cccc(Cl)c3F)n[nH]c2n1)[C@@H]1CCC[C@H]1CN` (single isomer, unassigned) [Example 29]: less than 1 µM; `CN(C[C@H]1CCC[C@@H]1N)c1cnc2c(N3CCCc4ncccc43)n[nH]c2n1` (single isomer, unassigned) [Example 32]: no less than 10 µM.
With `CN(c1cnc2c(-c3cccc(Cl)c3F)n[nH]c2n1)[C@@H]1CCC[C@H]1N` [Example 2], the IC50 was less than 1 µM.
Next, `CN(c1cnc2c(N3CCCc4ncccc43)n[nH]c2n1)[C@@H]1CCCC[C@@H]1N` (single isomer, unassigned) [Example 34]: 1 to 10 µM.
For `CN(c1cnc2c(-c3cccc(Cl)c3F)n[nH]c2n1)[C@H]1CCC[C@H]1N` (mixture of isomers) [Example 1], the IC50 fell in the range of 1 to 10 µM.
The figure for `CN(c1cnc2c(Oc3ccnc(Cl)c3Cl)n[nH]c2n1)[C@H]1CCCC[C@H]1N` [Example 44] is 1 to 10 µM; for `CN(c1cnc2c(N3CCCc4ncccc43)n[nH]c2n1)[C@@H]1CCOC[C@@H]1N` [Example 36] it is 1 to 10 µM.
The figure for `CN(c1cnc2c(-c3cccc(Cl)c3F)n[nH]c2n1)[C@@H]1CCCC[C@H]1CN` [Example 38] is less than 1 µM.
Next, `CN(c1cnc2c(-c3cccc(Cl)c3F)n[nH]c2n1)[C@H]1CCC[C@@H]1N` [Example 3]: less than 1 µM; `NC[C@@H]1CCCC[C@@H]1Nc1cnc2c(-c3cccc(Cl)c3F)n[nH]c2n1` (single isomer, unassigned) [Example 15]: less than 1 µM.
In the case of `CN(c1cnc2c(-c3ccnc(Cl)c3F)n[nH]c2n1)[C@@H]1CCCC[C@@H]1N` [Example 30], the IC50 was less than 1 µM.
Next, `CN(c1cnc2c(-c3cccc(Cl)c3F)n[nH]c2n1)[C@H]1CCC[C@H]1CN` (single isomer, unassigned) [Example 28]: less than 1 µM; `CN(c1cnc2c(-c3cccc(Cl)c3F)n[nH]c2n1)[C@H]1CCC[C@@H]1CN` (single isomer, unassigned) [Example 27]: less than 1 µM; `CN(c1cnc2c(-c3cccc(Cl)c3F)n[nH]c2n1)[C@H]1CCCC[C@H]1CN` [Example 39]: less than 1 µM.
Next, `CN(c1cnc2c(Sc3ccnc4[nH]ccc34)n[nH]c2n1)[C@@H]1CCCC[C@@H]1N` [Example 43]: less than 1 µM; `CN(c1cnc2c(N3CCCc4ncccc43)n[nH]c2n1)[C@H]1CCC[C@H]1N` [Example 9]: no less than 10 µM.
The figure for `CN(c1cnc2c(Oc3ccnc(Cl)c3Cl)n[nH]c2n1)[C@@H]1CCCC[C@@H]1N` [Example 45] is less than 1 µM.
`CN(c1cnc2c(Sc3ccccc3Cl)n[nH]c2n1)[C@@H]1CCCC[C@@H]1N` [Example 42] had an IC50 of less than 1 µM.
Next, `CN(C[C@@H]1CCC[C@H]1N)c1cnc2c(N3CCCc4ncccc43)n[nH]c2n1` (single isomer, unassigned) [Example 31]: no less than 10 µM; `CN(c1cnc2c(N3CCCc4ncccc43)n[nH]c2n1)[C@@H]1CCC[C@@H]1N` (single isomer, unassigned) [Example 8]: 1 to 10 µM; `CN(c1cnc2c(-c3cccc(Cl)c3F)n[nH]c2n1)[C@H]1CCCC[C@H]1N` (mixture of isomers) [Example 20]: less than 1 µM.
The figure for `NC[C@@H]1CCCC[C@H]1Nc1cnc2c(-c3cccc(Cl)c3F)n[nH]c2n1` (single isomer, unassigned) [Example 18] is 1 to 10 µM; for `NC[C@H]1CCCC[C@H]1Nc1cnc2c(-c3cccc(Cl)c3F)n[nH]c2n1` (single isomer, unassigned) [Example 17] it is 1 to 10 µM.
The figure for `CN(c1cnc2c(N3CCCc4ncccc43)n[nH]c2n1)[C@H]1COC[C@H]1N` (single isomer, unassigned) [Example 11] is no less than 10 µM.
In the case of `NC[C@H]1CCCC[C@@H]1Nc1cnc2c(-c3cccc(Cl)c3F)n[nH]c2n1` (mixture of isomers) [Example 14], the IC50 was less than 1 µM.
The figure for `CN(c1cnc2c(-c3cccc(Cl)c3F)n[nH]c2n1)[C@H]1CCCC[C@@H]1N` (single isomer, unassigned) [Example 23] is 1 to 10 µM.
Regarding `CN(c1cnc2c(N3CCCc4ncccc43)n[nH]c2n1)[C@H]1CCCC[C@H]1N` [Example 33], the IC50 was no less than 10 µM.
Next, `CN(c1cnc2c(-c3cccc(Cl)c3F)n[nH]c2n1)[C@H]1CCCC[C@@H]1CN` [Example 40]: less than 1 µM; `CN(c1cnc2c(-c3cccc(Cl)c3F)n[nH]c2n1)[C@H]1CCCC[C@@H]1N` (mixture of isomers) [Example 19]: less than 1 µM.

The values above are taken from patent US11701354B2, “Pyrazolo[3,4-b]pyrazine derivatives as SHP2 phosphatase inhibitors” (Relay Therapeutics, Inc., priority 2017, dated 2023).
